The source of these data is BindingDB's records for doi:10.1016/0960-894X(95)00399-E (1995).

For assay [1], the target named is Gastrin/cholecystokinin type B receptor (Cavia porcellus). Kind of assay: Binding affinity towards Cholecystokinin type B receptor was measured by displacement of [125I]CCK from guinea pig cortical membranes.
Assay [2] shares this target. Described as above. The source holds these as a separate data set.

pIC50: −log10 of the molar value.

Broadly, the pIC50 is the IC50 on a negative log10 scale, so that one unit is a factor of ten.

With `CN1C(=O)C(NC(=O)Nc2cccc(C(=O)O)c2)N=C(C2CCCCC2)c2ccccc21` (stereo not drawn) [3-[3-(5-Cyclohexyl-1-methyl-2-oxo-2,3-dihydro-1H-benzo[e][1,4]diazepin-3-yl)-ureido]-benzoic acid], the pIC50 in assay [1] is 8.85.
Consider `CN1C(=O)[C@H](NC(=O)Nc2cccc(C(=O)NS(=O)(=O)c3ccccc3)c2)N=C(C2CCCCC2)c2ccccc21` [N-{3-[3-((R)-5-Cyclohexyl-1-methyl-2-oxo-2,3-dihydro-1H-benzo[e][1,4]diazepin-3-yl)-ureido]-benzoyl}-benzenesulfonamide], for which, in assay [2], the pIC50 is 9.14.
With `CC(=O)NS(=O)(=O)c1cccc(NC(=O)NC2N=C(C3CCCCC3)c3ccccc3N(C)C2=O)c1` (stereo not drawn) [N-Acetyl-3-[3-(5-cyclohexyl-1-methyl-2-oxo-2,3-dihydro-1H-benzo[e][1,4]diazepin-3-yl)-ureido]-benzenesulfonamide], the pIC50 in assay [1] was 9.44.
